Source: US10639285B2 (Aurea Biolabs Private Limited, priority 2014, dated 2020)

Experiment: Absorption of curcumin and white curcumin in the blood plasma (FIG. 3)
Format: in vivo

- time of absorption in the blood plasma: 2 h
SMILES: COc1cc(C=CC(=O)CC(=O)C=Cc2ccc(O)c(OC)c2)ccc1O [curcumin, 1,7 bis (4-hydroxy-3-methoxy phenyl)-1,6 heptadiene-3,5-dione]
